“Also recorded” adds a separate entry of the source.

The subject of assay [1] is gelatinolytic activity in Collα1(I)r/r skin. The assay can be described thus: Substrate conversion assay (DQ-gelatin) on skin lysates. To be noted: inhibitor at 4 mM. The format is biochemical, mice. As to the method:
Shaved back skin pieces from 5-8 week old mice were pulverized in liquid N2 and solubilized in 500 μl buffer (0.25 M sucrose, 5 mM Tris, pH 7.5, protease Inhibitor cocktail mix without EDTA (Roche), 0.25 mg/ml Pefablock (Roche), 0.01 mg/ml Aprotinin (Sigma-Aldrich) using a 2 ml tissue grinder (Fisher) and centrifuged at 4° C. 800×g for 15-min. Supernatants were centrifuged for 1-hr at 100,000×g at 4° C. Supernatants were stored at −80° C., pellets were resuspended in 100 μl solubilization buffer, homogenized by sonication at 4° C., and stored at −80° C. Protein concentration was determined with the BioRad DC Protein assay reagent according to manufacturers instructions (BioRad). Prior to assay, lysate buffers were exchanged using Micro Bio-spin chromatography columns (Bio-gelP-6; BioRad) to 10 mM Tris pH 7.5 according to the manufacturers specifications. […] Reactions were incubated up to 5-hr at 37° C. and fluorescence measured (excitation 485 nm, emission 530 nm) every 3-min on a Microplate Spectrofluorometer (SpectraMax Gemini EM, Molecular Devices) and quantified using SoftMax Pro 4.1 software. […]

The subject of assay [2] is MP activity. The conditions noted are these: GM6001 i.p. 100 mg/kg, 20 mg/ml slurry in 4% CMC; cited from earlier work.
For assay [3], the system named is TGFβ1. The assay can be described thus: IP-Western of mature dimeric TGFβ1 in tissue lysates of treated mice. The format is in vivo. The conditions noted are these: lysates from Collα1(I)+/+ and Collα1(I)r/r mice treated with GM6001.
The test system of assay [4] is Collα1(I)+/+ and Collα1(I)r/r mice. The assay can be described thus: Miles assay: Evans blue leakage in ears after mustard oil challenge. The format is in vivo. The conditions noted are these: for Evans blue dye leakage into vascular stroma after MO, GM6001-treated versus vehicle-treated mice: GM6001 i.p. 100 mg/kg daily for 3-days before MO challenge. As to the method:
Evans blue (EB) dye (30 mg/kg in 100 μl PBS; Sigma-Aldrich) was injected into the tail vein of 7- to 8-week-old mice. In some experiments, after 1-min, 30 μl of 5% mustard oil (Phenyl Isothiocyanate, 98%, Sigma-Aldrich) diluted in mineral oil (Sigma-Aldrich) was applied to the dorsal and ventral surfaces of the ear; the application process was repeated 15 minutes later. Isoflurane anesthesized mice were photographed 30 minutes after injection of EB dye. Anesthesized mice were then cardiac perfused, ears removed, blotted dry and weighed. EB dye was extracted from ears in 1 ml of formamide overnight to 48-hrs at 60° C. and measured spectrophotometrically at 610 nm in a SpectraMax 340™ (Molecular Devices). Data are expressed as mean±SEM. Comparisons of the amounts of dye extravasation were evaluated by Mann-Whitney statistical test with p values less than 0.05 considered significant. In some experiments, 5-min prior to the infusion of EB dye, shaved 5-to 7-week old mice were injected (10 μl) intradermally with one of the following agents at the concentrations shown (VEGF120, R&D Systems; VEGF164, Chemicon; histamine, Calbiochem; serotonin, Sigma-Aldrich) and the appearance of a blue spot monitored for 30 minutes at which time mice were euthanized, cardiac perfused, photographed and the area of skin surrounding the site of injection excised (˜5 mm^2), photographed and EB dye extracted as above. […]
The vascular physiology in a mouse model of human Sc, e.g., Collα1(I)^r/r mice, was studied to determine whether an altered balance between collagen synthesis, accumulation and/or degradation was a rate-limiting factor for efficient vascular physiology prior to histopathologic appearance of Sc disease. The ears of Collα1(I)^r/r versus littermate control (Collα1(I)^+/+) mice were treated with vehicle alone (mineral oil; FIG. 1A) or mustard oil (MO; 5% in mineral oil: right ear), an inflammatory agent that induces plasma leakage, vasodilation of capillaries and inflammation in the skin (FIG. 1A). Evans blue dye (30 mg/kg in 100 μl PBS; Sigma Chemical Co., St. Louis, Mo., USA) was injected into the tail vein of the mice. After 1 minute, 5% mustard oil (Phenyl Isothiocyanate, 98%, Sigma) diluted in mineral oil (Sigma) was applied to the dorsal and ventral surfaces of the ear with a cotton swab; the application process was repeated 15 minutes later. […] Isoflurane anesthesized mice were photographed 30 minutes after injection of Evans blue dye. Anesthesized mice were then cardiac perfused, ears removed, blotted dry, and weighed. The Evans blue dye was extracted from the ears with 1 ml of formamide overnight at 60° C. and measured spectrophotometrically at 610 nm in a SpectraMax 340™ (Molecular Devices). Data are expressed as mean±SEM. Comparisons of the amounts of dye extravasation were evaluated by the Fisher's t test with p values less than 0.05 considered significant.
Vascular permeability (VP) responses in control and Collα1(I)^r/r mice treated with a broad spectrum synthetic metalloproteinase inhibitor (MPI), e.g., GM6001 were examined. GM6001 (N-[(2R)-2(hydroxyamidocarbonylmethyl)-4-methylpantanoyl]-L-tryptophan ethylamide), a broad, class-specific metalloproteinase inhibitor (Chemicon, Temecula Calif.), was administered daily i.p. at 100 mg/kg body weight as a 20 mg/ml slurry in 4% carboxymethylcellulose in 0.9% PBS daily for 3-days. Controls were treated with a daily injection of 4% carboxymethylcellulose in PBS. The animals were then subject to cutaneous challenge with MO and qualitative and quantitative assessment of Evans blue dye leakage into vascular stroma (FIG. 5A).

The mark [5] stands for this setting: control versus Colα1(I)r/r mice +/- mustard oil, p<0.03.

As for `c1cnc2c(c1)ccc1cccnc12` [1,10 phenanthroline], the “gelatinolytic activity in skin lysate” value in assay [1] is given as “completely inhibited”.

`CNC(=O)[C@H](Cc1c[nH]c2ccccc12)NC(=O)[C@@H](CC(=O)NO)CC(C)C` [GM6001]: the “in vivo MP activity” value in assay [2] is “inhibit in vivo MP activity”. Further, the “level of ~25 kDa dimeric mature form of TGFβ1 in tissue lysates” value in assay [3] is recorded as “markedly decreased; also recorded: reduced”. For the same compound, the “Evans blue dye leakage into vascular stroma after MO, GM6001-treated versus vehicle-treated mice” value in assay [4] (Collα1(I)r/r mice) is “significantly above vehicle-treated; also recorded: restored the appropriate acute vascular responses; also recorded: restores acute vascular responses”. Also, the “Evans blue dye leakage into vascular stroma after MO, GM6001-treated versus vehicle-treated mice” value in assay [4] (control Collα1(I)+/+ mice) is recorded as “higher than that observed in MO-treated control mice receiving vehicle alone; also recorded: even more susceptible to MO-induced EB leakage; also recorded: hyper-sensitive to vascular leakage”. Further, in assay [4] (setting [5]), the “effect of GM6001, fold increase (FIG. 5)” value is 1.8 fold and the “effect of GM6001, increase in % (FIG. 5)” value is on record as 54%.

The values above are taken from patent US20080206219A1, “Novel Indications for Transforming Growth Factor-Beta Regulators” (THE REGENCTS OF THE UNIVERSITY OF CALIFORNIA, priority 2003, published 2008).
